Source: US8697641B2, “4-amino-4-oxobutanoyl peptide cyclic analogues, inhibitors of viral replication” (Achillion Pharmaceuticals, Inc., priority 2008, dated 2014)

Test system: Hepatitis C replicon
Assay: HCV replicon assay (NPT ELISA readout) in Huh-7 replicon-containing cells
Assay type: cell-based, Hepatitis C virus
Conditions: HCV replicon in Huh-7 cells, three days incubation
Protocol: Compounds claimed herein are tested for the ability to inhibit viral replication of the Hepatitis C replicon in cultured cells in which the HCV replicon construct has been incorporated. The HCV replicon system was described by Bartenschlager, et. al (Science, 285, pp. 110-113 (1999)). The replicon system is predictive of in vivo anti-HCV activity; compounds that are active in humans uniformly evidence activity in the replicon assay.
In this assay HCV replicon containing cells are treated with different concentrations of the test compound to ascertain the ability of the test compound to suppress replication of the HCV replicon. As a positive control, HCV replicon-containing cells are treated with different concentrations of interferon alpha, a known inhibitor of HCV replication. The replicon assay system includes Neomycin Phosphotransferase (NPT) as a component of the replicon itself in order to detect the transcription of replicon gene products in the host cell. Cells in which the HCV replicon is actively replicating have high levels of NPT; the level of NPT is proportional to HCV replication. […] The NPT level of each sample is measured using a captured ELISA.
A protocol for testing compounds for the ability to inhibit viral replication of the Hepatitis C replicon cultured cells in which the replicon construct has been incorporated, follows.
The HCV replicon contains, 5′-3′, the HCV-IRES, the neomycin phosphotransferase (neo) gene, the IRES of encephalomyocarditis virus, which directs translation of HCV sequences NS3 to NS5B, and the 3′-NTR. The sequence of the HCV replicon has been deposited in GenBank (Accession no. AJ242652).
The replicon is transfected into Huh-7 cells using standard methods such as electroporation.
The equipment and materials include, but are not limited to, Huh-7 HCV replicon-containing cells, maintenance media (DMEM (Dulbecco's modified Eagle media) supplemented with 10% FBS, L-glutamine, non-essential amino acids, penicillin (100 units/ml), streptomycin (100 micrograms/ml), and 500 micrograms/ml of Geneticin (G418), screening media (DMEM supplemented with 10% FBS, L-glutamine, non-essential amino acids, penicillin (100 units/ml) and streptomycin (100 micrograms/ml)), 96 well tissue culture plates (flat bottom), 96 well plates (U bottom for drug dilution), Interferon alpha for positive control, fixation reagent (such as methanol:acetone), primary antibody (rabbit anti-NPTII), secondary antibody: Eu-N1 l, and enhancement solution.
The cells are then seeded onto 96-well plates at a density of 6000-7500 cells/100 microliters/well (6-7.5×10^5 cells/10 ml/plate). The plates are then incubated at 37° C. in a 5% CO2 incubator.
HCV replicon-containing cells are rinsed with once PBS once; 2 mls of trypsin are then added. Cells are incubated at 37° C. in a 5% CO2 incubator for 3-5 minutes. 10 mls of complete medium is added to stop the reaction. Cells are blown gently, put into a 15 ml tube, and spun at 1200 rpm for four minutes. The trypsin/medium solution is removed and 5 mls of medium (500 ml DMEM (high glucose)) from BRL catalog #12430-054; 50 mls 10% FBS, 5% Geneticin G418 (50 mg/ml, BRL catalog #10131-035), 5 ml MEM non-essential amino acids (100×BRL #11140-050) and 5 ml pen-strep (BRL #15140-148) is added. The cells and media are mixed carefully
Cells are plated with screening medium (500 ml DMEM (BRL #21063-029), 50 ml FBS (BRL #10082-147) and 5 ml MEM non-essential amino acid (BRL #11140-050) at 6000-7500 fcells/100 μl/well of 96 well plate (6-7.5×10^5 cells/10 ml/plate). Plates are placed into 37° C. 5% CO2 incubator overnight.
The following morning, drugs (test compounds or interferon alpha) are diluted in 96 well U bottom plates with media or DMSO/media, depending on the final concentration chosen for screening. Generally for 6 concentrations of each test compounds ranging from 10 micromolar to 0.03 micromolar are applied. […]

Structure (SMILES) | EC50 [nM]
COc1ccc2c(O[C@@H]3C[C@H]4C(=O)N[C@]5(C(=O)NS(=O)(=O)C6CC6)C[C@H]5CCCCCCC[C@H](CC(=O)N5CCCCC5)C(=O)N4C3)cc(-c3ccccc3)nc2c1 [Compound 51, (2R,6R,13aR, 14aR,16aS)-N-(cyclopropylsulfonyl)-2-(7-methoxy-2-phenylquinolin-4-yloxy)-5,16-dioxo-6-(2-oxo-2-(piperidin-1-yl)ethyl) octadecahydrocyclopropa [e]pyrrolo[1,2-a][1,4] diazacyclopentadecine-14a-carboxamide] | < 1000
COc1ccc2c(O[C@@H]3C[C@H]4C(=O)N[C@H](C(=O)NS(=O)(=O)C5CC5)CCCCCCCCC[C@H](CC(=O)N5CCCCC5)C(=O)N4C3)cc(-c3ccccc3)nc2c1 [Compound 52, (3S,13R,17R,18aS)-N-(cyclopropylsulfonyl)-17-(7-methoxy-2-phenylquinolin-4-yloxy)-1,14-dioxo-13-(2-oxo-2-(piperidin-1-yl)ethyl) octadecahydropyrrolo [1,2-a][1,4] diazacyclohexadecine-3-carboxamide] | 1000 to 10000

Same assay, conditions: Hepatitis C virus, 72 h; HCV replicon in Huh-7 cells, three days incubation

Structure (SMILES) | EC50 [nM]
CCOC(=O)C12CC1/C=C\CCCCC[C@@H](CC(=O)N1CCCCC1)C(=O)N1C[C@H](Oc3cc(-c4ccccc4)nc4cc(OC)ccc34)C[C@H]1C(=O)N2 (stereo partly drawn) [Compound 42, (2R,6S,16aS,Z)-ethyl 2-(7-methoxy-2-phenylquinolin-4-yloxy)-5,16-dioxo-6-(2-oxo-2-(piperidin-1-yl)ethyl)-1,2,3,5,6,7,8,9,10,11, 13a,14,14a,15,16,16a-hexadecahydrocyclopropa [e]pyrrolo[1,2-a][1,4] diazacyclopentadecine-14a-carboxylate] | 1000 to 10000
COc1ccc2c(O[C@@H]3C[C@H]4C(=O)NC5(C(=O)O)CC5/C=C\CCCCC[C@@H](CC(=O)N5CCCCC5)C(=O)N4C3)cc(-c3ccccc3)nc2c1 (stereo partly drawn) [Compound 43, (2R,6S,16aS,Z)-2-(7-methoxy-2-phenylquinolin-4-yloxy)-5,16-dioxo-6-(2-oxo-2-(piperidin-1-yl)ethyl)-1,2,3,5,6,7,8,9,10,11, 13a,14,14a,15,16,16a-hexadecahydrocyclopropa [e]pyrrolo[1,2-a][1,4] diazacyclopentadecine-14a-carboxylic acid] | 1000 to 10000
COc1ccc2c(O[C@@H]3C[C@H]4C(=O)N[C@]5(C(=O)O)C[C@H]5/C=C\CCCCC[C@H](CC(=O)N5CCCCC5)C(=O)N4C3)cc(-c3ccccc3)nc2c1 [Compound 44, (2R,6R,13aS,14aR, 16aS,Z)-2-(7-methoxy-2-phenylquinolin-4-yloxy)-5,16-dioxo-6-(2-oxo-2-(piperidin-1-yl)ethyl)-1,2,3,5,6,7,8,9,10,11, 13a,14,14a,15,16,16a-hexadecahydrocyclopropa [e]pyrrolo[1,2-a][1,4] diazacyclopentadecine-14a-carboxylic acid] | > 10000
CCOC(=O)[C@@]12C[C@H]1/C=C\CCCCC[C@H](CC(=O)N1CCCCC1)C(=O)N1C[C@H](Oc3cc(-c4ccccc4)nc4cc(OC)ccc34)C[C@H]1C(=O)N2 [Compound 45, (2R,6R,13aS,14aR, 16aS,Z)-ethyl 2-(7-methoxy-2-phenylquinolin-4-yloxy)-5,16-dioxo-6-(2-oxo-2-(piperidin-1-yl)ethyl)-1,2,3,5,6,7,8,9,10,11, 13a,14,14a,15,16,16a-hexadecahydrocyclopropa [e]pyrrolo[1,2-a][1,4] diazacyclopentadecine-14a-carboxylate] | > 10000
CCOC(=O)[C@@]12C[C@H]1/C=C\CCCCC[C@H](CC(=O)OC(C)(C)C)C(=O)N1C[C@H](Oc3cc(-c4ccccc4)nc4cc(OC)ccc34)C[C@H]1C(=O)N2 [Compound 46, (2R,6R,13aS,14aR, 16aS,Z)-ethyl 6-(2-tert-butoxy-2-oxoethyl)-2-(7-methoxy-2-phenylquinolin-4-yloxy)-5,16-dioxo-1,2,3,5,6,7,8,9,10,11, 13a,14,14a,15,16,16a-hexadecahydrocyclopropa [e]pyrrolo[1,2-a][1,4] diazacyclopentadecine-14a-carboxylate] | > 10000
CCOC(=O)[C@]12C[C@@H]1/C=C\CCCCC[C@H](CC(=O)OC(C)(C)C)C(=O)N1C[C@H](Oc3cc(-c4ccccc4)nc4cc(OC)ccc34)C[C@H]1C(=O)N2 [Compound 47, (2R,6R,13aR,14aS, 16aS,Z)-ethyl 6-(2-tert-butoxy-2-oxoethyl)-2-(7-methoxy-2-phenylquinolin-4-yloxy)-5,16-dioxo-1,2,3,5,6,7,8,9,10,11, 13a,14,14a,15,16,16a-hexadecahydrocyclopropa [e]pyrrolo[1,2-a][1,4] diazacyclopentadecine-14a-carboxylate] | < 1000
COc1ccc2c(O[C@@H]3C[C@H]4C(=O)N[C@]5(C(=O)NS(=O)(=O)C6CC6)C[C@H]5/C=C\CCCCC[C@H](CC(=O)N5CCCCC5)C(=O)N4C3)cc(-c3ccccc3)nc2c1 [Compound 48, (2R,6R,13aS, 14aR,16aS,Z)-N-(cyclopropylsulfonyl)-2-(7-methoxy-2-phenylquinolin-4-yloxy)-5,16-dioxo-6-(2-oxo-2-(piperidin-1-yl)ethyl)-1,2,3,5,6,7,8,9,10,11, 13a,14,14a,15,16,16a-hexadecahydrocyclopropa [e]pyrrolo[1,2-a][1,4] diazacyclopentadecine-14a-carboxamide] | 1000 to 10000
COc1ccc2c(O[C@@H]3C[C@H]4C(=O)N[C@@]5(C(=O)NS(=O)(=O)C6CC6)C[C@@H]5/C=C\CCCCC[C@H](CC(=O)N5CCCCC5)C(=O)N4C3)cc(-c3ccccc3)nc2c1 [Compound 49, (2R,6R,13aR, 14aS,16aS,Z)-N-(cyclopropylsulfonyl)-2-(7-methoxy-2-phenylquinolin-4-yloxy)-5,16-dioxo-6-(2-oxo-2-(piperidin-1-yl)ethyl)-1,2,3,5,6,7,8,9,10,11, 13a,14,14a,15,16,16a-hexadecahydrocyclopropa [e]pyrrolo[1,2-a][1,4] diazacyclopentadecine-14a-carboxamide] | 1000 to 10000
O=C1NC2(C(=O)NS(=O)(=O)C3CC3)CC2/C=C\CCCCC[C@H](CC(=O)N2CCCCC2)C(=O)N2C[C@H](OC(=O)N3Cc4cccc(F)c4C3)C[C@@H]12 (stereo partly drawn) [Compound 50, (2R,6R,16aS,Z)-14a-(cyclopropylsulfonyl-carbamoyl)-5,16-dioxo-6-(2-oxo-2-(piperidin-1-yl)ethyl)-1,2,3,5,6,7,8,9,10,11, 13a,14,14a,15,16,16a-hexadecahydrocyclopropa [e]pyrrolo[1,2-a][1,4] diazacyclopentadecin-2-yl 4-fluoroisoindoline-2-carboxylate] | < 1000
COc1ccc2c(O[C@@H]3C[C@H]4C(=O)N[C@H](C(=O)NS(=O)(=O)C5CC5)[C@@H](C)CCCCCCC[C@H](CC(=O)N5CCCCC5)C(=O)N4C3)cc(-c3ccccc3)nc2c1 [Compound 53, (3S,4S,12R,16R,17aS)-N-(cyclopropylsulfonyl)-16-(7-methoxy-2-phenylquinolin-4-yloxy)-4-methyl-1,13-dioxo-12-(2-oxo-2-(piperidin-1-yl)ethyl)hexadecahydro-1H-pyrrolo[1,2-a][1,4] diazacyclopentadecine-3-carboxamide] | 1000 to 10000
COc1ccc2c(O[C@@H]3C[C@H]4C(=O)N[C@@](C)(C(=O)NS(=O)(=O)C5CC5)CCCCCCCC[C@H](CC(=O)N5CCCCC5)C(=O)N4C3)cc(-c3ccccc3)nc2c1 [Compound 54, (3R,12R,16R,17aS)-N-(cyclopropylsulfonyl)-16-(7-methoxy-2-phenylquinolin-4-yloxy)-3-methyl-1,13-dioxo-12-(2-oxo-2-(piperidin-1-yl)ethyl)hexadecahydro-1H-pyrrolo[1,2-a][1,4] diazacyclopentadecine-3-carboxamide] | < 1000
